pEC50, pIC50: −log10 of the molar value.
Key:
[1] = target: T1, GLS1 (purified recombinant human GAC) (Homo sapiens, UniProt O94925); test: GLS1 enzymatic activity assay (dual-coupled, Amplex UltraRed/resorufin); format: biochemical
T1 sequence (O94925 55-598 isoform O94925-3 limits assumed): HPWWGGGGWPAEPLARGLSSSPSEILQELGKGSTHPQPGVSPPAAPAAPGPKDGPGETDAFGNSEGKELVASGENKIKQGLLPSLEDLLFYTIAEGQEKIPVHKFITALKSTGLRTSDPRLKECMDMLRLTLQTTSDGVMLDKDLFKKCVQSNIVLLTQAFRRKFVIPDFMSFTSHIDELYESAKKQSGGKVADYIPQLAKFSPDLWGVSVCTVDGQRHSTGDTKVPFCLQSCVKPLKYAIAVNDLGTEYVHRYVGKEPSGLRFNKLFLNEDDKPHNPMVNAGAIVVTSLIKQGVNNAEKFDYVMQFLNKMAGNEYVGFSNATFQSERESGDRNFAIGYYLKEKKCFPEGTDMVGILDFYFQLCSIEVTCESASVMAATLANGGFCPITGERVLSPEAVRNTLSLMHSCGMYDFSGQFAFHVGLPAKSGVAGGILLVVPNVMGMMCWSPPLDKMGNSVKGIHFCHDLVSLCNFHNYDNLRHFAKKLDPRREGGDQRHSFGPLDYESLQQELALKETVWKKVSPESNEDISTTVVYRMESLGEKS
How it was run: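 Recombinant human GAC (2 nM) preincubated with 50 mM potassium phosphate, then inhibitor (10 min each, RT); 1 mM glutamine, pH 7.4 Hepes buffer, 1% DMSO. Glutamate coupled via glutamate oxidase/HRP to resorufin (Ex 530/Em 590), kinetic or 20-min endpoint; IC50 by four-parameter logistic fit.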

A549 cells = test: A549 proliferation (viability) assay, Cell Titer Fluor, 72 hours; format: cell-based; details: Homo sapiens
How it was run: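 Compound exposure lasted 72 h (final DMSO 0.5% v/v) on A549 cells plated at 1000 cells/well one day earlier. Cell Titer Fluor added, 30 min at 37 °C, fluorescence read; EC50 derived by four-parameter logistic curve fitting.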

Structure (SMILES)	pIC50 [1]	pEC50 (A549 cells)
O=C(Cc1ccccn1)Nc1ccn(CCCCc2nnc(C(=O)NCc3cc(OC(F)(F)F)ccc3F)s2)c(=O)c1 [Example 461, N-{[2-fluoro-5-(trifluoromethoxy)phenyl]methyl}-5-(4-{2-oxo-4-[2-(pyridin-2-yl)acetamido]-1,2-dihydropyridin-1-yl}butyl)-1,3,4-thiadiazole-2-carboxamide]	> 7.00	5.30 to 6.30
Cc1ccc(CNC(=O)c2nnc(CCCCn3ccc(NC(=O)CN4CCCCC4)c(F)c3=O)s2)cn1 [Example 462, 5-(4-{3-fluoro-2-oxo-4-[2-(piperidin-1-yl)acetamido]-1,2-dihydropyridin-1-yl}butyl)-N-[(6-methylpyridin-3-yl)methyl]-1,3,4-thiadiazole-2-carboxamide]	6.30 to 7.00	6.30 to 7.00
Cc1ccc(CNC(=O)c2nnc(CCCCn3ccc(NC(=O)C(=O)N4CCCCC4)c(F)c3=O)s2)cn1 [Example 463, 5-(4-{3-fluoro-2-oxo-4-[2-oxo-2-(piperidin-1-yl)acetamido]-1,2-dihydropyridin-1-yl}butyl)-N-[(6-methylpyridin-3-yl)methyl]-1,3,4-thiadiazole-2-carboxamide]	6.30 to 7.00	6.30 to 7.00
Cc1ccc(CNC(=O)c2nnc(CCCCn3ccc(NC(=O)CC4CCC4)c(F)c3=O)s2)cn1 [Example 464, 5-(4-(4-(2-cyclobutylacetamido)-3-fluoro-2-oxopyridin-1(2H)-yl)butyl)-N-((6-methylpyridin-3-yl)methyl)-1,3,4-thiadiazole-2-carboxamide]	> 7.00	> 7.00
O=C(CC1CCC1)Nc1ccn(CCCCc2nnc(C(=O)NCc3cc(C(F)(F)F)ccn3)s2)c(=O)c1F [Example 465, 5-{4-[4-(2-cyclobutylacetamido)-3-fluoro-2-oxo-1,2-dihydropyridin-1-yl]butyl}-N-{[4-(trifluoromethyl)pyridin-2-yl]methyl}-1,3,4-thiadiazole-2-carboxamide]	> 7.00	> 7.00
O=C(Nc1ccn(CCCCc2nnc(C(=O)NCc3cc(C(F)(F)F)ccn3)s2)c(=O)c1F)C(=O)N1CCCCC1 [Example 466, 5-(4-{3-fluoro-2-oxo-4-[2-oxo-2-(piperidin-1-yl)acetamido]-1,2-dihydropyridin-1-yl)butyl)-N-{[4-(trifluoromethyl)pyridin-2-yl]methyl}-1,3,4-thiadiazole-2-carboxamide]	> 7.00	6.30 to 7.00
O=C(CN1CCCCC1)Nc1ccn(CCCCc2nnc(C(=O)NCc3cc(C(F)(F)F)ccn3)s2)c(=O)c1F [Example 467, 5-(4-{3-fluoro-2-oxo-4-[2-(piperidin-1-yl)acetamido]-1,2-dihydropyridin-1-yl}butyl)-N-{[4-(trifluoromethyl)pyridin-2-yl]methyl}-1,3,4-thiadiazole-2-carboxamide]	> 7.00	6.30 to 7.00
Cc1ccc(CNC(=O)c2nnc(CCCCn3ccc(NC(=O)OC4CCC4)c(F)c3=O)s2)cn1 [Example 468, Cyclobutyl(3-fluoro-1-(4-(5-(((6-methylpyridin-3-yl)methyl)carbamoyl)-1,3,4-thiadiazol-2-yl)butyl)-2-oxo-1,2-dihydropyridin-4-yl)carbamate]	6.30 to 7.00	6.30 to 7.00
O=C(Nc1ccn(CCCCc2nnc(C(=O)NCc3cc(C(F)(F)F)ccn3)s2)c(=O)c1F)OC1CCC1 [Example 469, cyclobutyl N-(3-fluoro-2-oxo-1-{4-[5-({[4-(trifluoromethyl)pyridin-2-yl]methyl}carbamoyl)-1,3,4-thiadiazol-2-yl]butyl}-1,2-dihydropyridin-4-yl)carbamate]	> 7.00	6.30 to 7.00
O=C(Nc1ccn(CCC(F)Cn2cc(C(=O)NCc3cccc(OC(F)(F)F)c3)nn2)c(=O)n1)OCc1ccccc1 (centres unmarked) [Example 470, benzyl N-(1-{3-fluoro-4-[4-({[3-(trifluoromethoxy)phenyl]methyl}carbamoyl)-1H-1,2,3-triazol-1-yl]butyl}-2-oxo-1,2-dihydropyrimidin-4-yl)carbamate]	> 7.00	> 7.00
CC(C)COC(=O)Nc1ccn(CCC(F)Cn2cc(C(=O)NCc3cccc(OC(F)(F)F)c3)nn2)c(=O)n1 (centres unmarked) [Example 471, 2-methylpropyl N-(1-{3-fluoro-4-[4-({[3-(trifluoro-methoxy)phenyl]methyl}carbamoyl)-1H-1,2,3-triazol-1-yl]butyl}-2-oxo-1,2-dihydropyrimidin-4-yl)carbamate]	> 7.00	> 7.00
O=C(NCc1cccc(OC(F)(F)F)c1)c1cn(CC(F)CCn2ccc(COc3cccc(F)c3)cc2=O)nn1 (centres unmarked) [Example 472, 1-{2-fluoro-4-[4-(3-fluorophenoxymethyl)-2-oxo-1,2-dihydropyridin-1-yl]butyl}-N-{[3-(trifluoromethoxy)phenyl]methyl}-1H-1,2,3-triazole-4-carboxamide]	> 7.00	6.30 to 7.00
O=C(NCc1cccc(OC(F)(F)F)c1)c1cn(CC(F)CCn2ccc(COc3ccccc3F)cc2=O)nn1 (centres unmarked) [Example 473, 1-{2-fluoro-4-[4-(2-fluorophenoxymethyl)-2-oxo-1,2-dihydropyridin-1-yl]butyl}-N-{[3-(trifluoromethoxy)phenyl]methyl}-1H-1,2,3-triazole-4-carboxamide]	> 7.00	6.30 to 7.00
O=C(NCc1cccc(OC(F)(F)F)c1)c1cn(CC(F)CCn2ccc(COc3c(F)cccc3F)cc2=O)nn1 (centres unmarked) [Example 474, 1-{4-[4-(2,6-difluorophenoxymethyl)-2-oxo-1,2-dihydropyridin-1-yl]-2-fluorobutyl}-N-{[3-(trifluoromethoxy)phenyl]methyl}-1H-1,2,3-triazole-4-carboxamide]	> 7.00	6.30 to 7.00
O=C(NCc1cccc(OC(F)(F)F)c1)c1cn(CC(F)CCn2ccc(COc3cccc(Cl)c3)cc2=O)nn1 (centres unmarked) [Example 475, 1-{4-[4-(3-chlorophenoxymethyl)-2-oxo-1,2-dihydropyridin-1-yl]-2-fluorobutyl}-N-{[3-(trifluoromethoxy)phenyl]methyl}-1H-1,2,3-triazole-4-carboxamide]	> 7.00	5.30 to 6.30
O=C(NCc1cccc(OC(F)(F)F)c1)c1cn(CC(F)CCn2ccc(COc3cccc(OC(F)(F)F)c3)cc2=O)nn1 (centres unmarked) [Example 476, 1-(2-fluoro-4-{2-oxo-4-[3-(trifluoromethoxy)phenoxymethyl]-1,2-dihydropyridin-1-yl}butyl)-N-{[3-(trifluoromethoxy)phenyl]methyl}-1H-1,2,3-triazole-4-carboxamide]	> 7.00	5.30 to 6.30
O=C(NCc1cccc(OC(F)(F)F)c1)c1cn(CC(F)CCn2ccc(COc3ccc(Cl)cc3)cc2=O)nn1 (centres unmarked) [Example 477, 1-{4-[4-(4-chlorophenoxymethyl)-2-oxo-1,2-dihydropyridin-1-yl]-2-fluorobutyl}-N-{[3-(trifluoromethoxy)phenyl]methyl}-1H-1,2,3-triazole-4-carboxamide]	> 7.00	6.30 to 7.00
O=C(NCc1cccc(OC(F)(F)F)c1)c1cn(CC(F)CCn2ccc(COc3ccc(F)cc3F)cc2=O)nn1 (centres unmarked) [Example 478, 1-{4-[4-(2,4-difluorophenoxymethyl)-2-oxo-1,2-dihydropyridin-1-yl]-2-fluorobutyl}-N-{[3-(trifluoromethoxy)phenyl]methyl}-1H-1,2,3-triazole-4-carboxamide]	> 7.00	6.30 to 7.00
O=C(NCc1cccc(OC(F)(F)F)c1)c1cn(CC(F)CCn2ccc(Cn3ccccc3=O)cc2=O)nn1 (centres unmarked) [Example 479, 1-(2-fluoro-4-{2-oxo-4-[(2-oxo-1,2-dihydropyridin-1-yl)methyl]-1,2-dihydropyridin-1-yl}butyl)-N-{[3-(trifluoromethoxy)phenyl]methyl}-1H-1,2,3-triazole-4-carboxamide]	5.30 to 6.30	5.30 to 6.30
O=C(NCc1cccc(OC(F)(F)F)c1)c1cn(CC(F)CCn2ccc(COc3ccccn3)cc2=O)nn1 (centres unmarked) [Example 480, 1-(2-fluoro-4-{2-oxo-4-[(pyridin-2-yloxy)methyl]-1,2-dihydropyridin-1-yl}butyl)-N-{[3-(trifluoromethoxy)phenyl]methyl}-1H-1,2,3-triazole-4-carboxamide]	6.30 to 7.00	5.30 to 6.30
O=C(NCc1cc(C(F)(F)F)ccn1)c1cn(CC(F)CCn2ccc(COc3cccc(Cl)c3)cc2=O)nn1 (centres unmarked) [Example 481, 1-{4-[4-(3-chlorophenoxymethyl)-2-oxo-1,2-dihydropyridin-1-yl]-2-fluorobutyl}-N-{[4-(trifluoromethyl)pyridin-2-yl]methyl}-1H-1,2,3-triazole-4-carboxamide]	> 7.00	6.30 to 7.00
O=C(NCc1cc(C(F)(F)F)ccn1)c1cn(CC(F)CCn2ccc(COc3cccc(F)c3)cc2=O)nn1 (centres unmarked) [Example 482, 1-{2-fluoro-4-[4-(3-fluorophenoxymethyl)-2-oxo-1,2-dihydropyridin-1-yl]butyl}-N-{[4-(trifluoromethyl)pyridin-2-yl]methyl}-1H-1,2,3-triazole-4-carboxamide]	> 7.00	6.30 to 7.00
